One assay deals with T1, hACAT-1 (Homo sapiens, UniProt P35610).
T1 construct: made in house; host or cells: Hi5 insect cells infected with recombinant baculovirus (virus produced in sf9 cells); microsomal fraction used
T1 sequence (P35610 1-550): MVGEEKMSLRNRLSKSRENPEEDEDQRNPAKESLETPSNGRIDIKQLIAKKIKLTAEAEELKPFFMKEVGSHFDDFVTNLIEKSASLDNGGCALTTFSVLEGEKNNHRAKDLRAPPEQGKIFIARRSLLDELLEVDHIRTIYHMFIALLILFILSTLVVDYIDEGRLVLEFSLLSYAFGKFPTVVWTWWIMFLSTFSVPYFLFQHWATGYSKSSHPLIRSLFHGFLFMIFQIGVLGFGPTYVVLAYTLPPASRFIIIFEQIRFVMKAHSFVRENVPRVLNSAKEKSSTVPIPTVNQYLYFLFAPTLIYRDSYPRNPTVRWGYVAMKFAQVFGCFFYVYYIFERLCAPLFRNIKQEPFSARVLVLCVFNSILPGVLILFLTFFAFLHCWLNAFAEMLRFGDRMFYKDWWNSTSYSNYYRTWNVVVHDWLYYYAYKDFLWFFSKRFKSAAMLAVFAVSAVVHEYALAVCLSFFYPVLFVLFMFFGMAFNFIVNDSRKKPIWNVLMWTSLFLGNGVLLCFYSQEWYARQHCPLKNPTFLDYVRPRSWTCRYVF
In words: ACAT activity, microsomal fraction of Hi5 cells over-expressing hACAT-1. Type of assay: biochemical. As for the experimental part:
(§1) In order to investigate the effect on hACAT-1 and hACAT-2 activities, hACAT-1 and hACAT-2 proteins were first obtained by taking advantage of baculovirus expression system.
(§2) cDNAs of hACAT-1 and hACAT-2 obtained from human liver cDNA library screening were inserted into baculovirus transfer vector, which was then introduced into insect sf9 cells to produce virus. Then, recombinant viruses of HACAT-1 and hACAT-2 were separated by plaque purification method, and amplification was performed three times to increase titer of viral stock. Hi5 insect cells having a good protein expression efficacy were infected with the recombinant virus, making multiplicity of infection as 1, followed by shaking culture at 27° C. for one day.
(§3) The cultured Hi5 cells over-expressing hACAT-1 and hACAT-2 were centrifuged at 500×g for 15 minutes to separate microsomal fraction. Then, cells were crushed in hypotonic buffer by quick freezing quick thawing, followed by ultracentrifugation at 100,000×g for one hour.
(§4) The obtained microsomal fractions were suspended in storage buffer solution, adjusting protein content to 8 mg/ml, which was stored in a deep freezer before using.
(§5) 6.67 μl of cholesterol dissolved in acetone at the concentration of 1 mg/ml was mixed with 6 μl of 10% triton WR 1339 (Sigma Co.) in acetone. And acetone was evaporated by nitrogen gas. Distilled water was added to the resultant mixture to adjust the content of cholesterol to […].
(§6) To 10 μl of cholesterol solution was added 10 μl of 1 M KH2PO4 (pH 7.4), 5 μl of 0.6 mM BSA (bovine serum albumin), 10 μl of the microsomal solution obtained above, 10 μl of sample (T. nucifera extracts or abietane diterpenoid compound isolated from the same) and 45 μl of distilled water (total 90 μl). The mixture was pre-incubated in a 37° C. water bath for 30 minutes.
(§7) 10 μl of [1-^14C]oleyl-CoA solution (0.05 μCi, final concentration 10 μM) was added to the pre-incubated mixture, which was reacted in a 37° C. water bath for 30 minutes. To the mixture was added 500 μl of isopropanol:heptane solution (4:1 (v/v)), 300 μl of heptane and 200 μl of 0.1 M KH2PO4 (pH 7.4), which was stirred vigorously with vortex and then allowed to phase separation under gravity at room temperature for 2 minutes.
(§8) The 200 μl of upper phase was put in a scintillation vial, to which 4 ml of scintillation solution (Lipoluma, Lumac Co.) was added. Radioactivity of the upper phase was measured by a scintillation counter (1450 Microbeta liquid scintillation counter, Wallacoy, Finland).
(§9) ACAT activity was calculated based on the radioactivity, the amount of synthesized cholesteryl oleate, measured above and expressed as a defined unit, pico mole per 1 mg of protein for 1 minute (pico mole/minute/mg protein).

The target in the next assay is T2, hACAT-2 (Homo sapiens, UniProt O75908).
T2 construct: made in house; host or cells: Hi5 insect cells infected with recombinant baculovirus (virus produced in sf9 cells); microsomal fraction used
T2 sequence (O75908 1-522): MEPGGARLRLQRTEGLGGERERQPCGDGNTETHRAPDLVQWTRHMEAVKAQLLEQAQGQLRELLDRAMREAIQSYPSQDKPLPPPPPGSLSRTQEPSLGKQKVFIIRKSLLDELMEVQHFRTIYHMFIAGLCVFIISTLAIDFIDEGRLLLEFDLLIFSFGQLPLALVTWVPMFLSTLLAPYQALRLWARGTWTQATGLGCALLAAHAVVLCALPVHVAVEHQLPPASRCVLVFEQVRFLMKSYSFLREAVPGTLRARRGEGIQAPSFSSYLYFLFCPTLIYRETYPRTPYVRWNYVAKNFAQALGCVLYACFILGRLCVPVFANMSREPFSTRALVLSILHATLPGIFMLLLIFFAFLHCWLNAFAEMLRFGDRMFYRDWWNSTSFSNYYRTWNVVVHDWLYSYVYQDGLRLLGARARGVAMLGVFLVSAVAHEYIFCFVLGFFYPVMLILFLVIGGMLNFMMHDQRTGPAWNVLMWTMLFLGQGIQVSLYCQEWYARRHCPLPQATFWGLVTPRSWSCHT
In words: ACAT activity, microsomal fraction of Hi5 cells over-expressing hACAT-2. Type of assay: biochemical. As to the method:
as §1, §2, §3, §4, §5, §6, §7, §8, §9

For another assay, the system named is LDL. In words: Anti-oxidative activity to LDL by TBARS method (Cu2+ mediated LDL-oxidation). Type of assay: biochemical, human. The note with it: 37° C. 4 hours, MDA by TBARS. As for the experimental part:
Cu^2+ is known to mediate LDL-oxidation. Thus, in the present invention, dialdehyde, which is an oxidation product of unsaturated fatty acid formed during Cu^2+ mediated LDL-oxidation, was measured by thiobarbituric acid reactive substances (TBARS) method in order to investigate the LDL anti-oxidative activity of T. nucifera extracts or abietane diterpenoid compound separated from the same (Ahn, B. T. et. al., Low-density Lipoprotein-Antioxidant Constituents of Saururus Chinensis, J. Nat. Prod. 64: 1562, 2001). Centrifugation was performed with 300 ml of human blood plasma by using a ultracentrifuge at 100,000×g for 24 hours to remove floating VLDL/chylomicron layer in the upper part. The specific gravity of the remaining solution was adjusted to 1.063 g/ml. Centrifugation was performed again at 100,000×g for 24 hours, and 25 ml of the floating LDL (1.5˜2.5 mg protein/ml) in the upper layer was separated. […] T. nucifera extracts or abietane diterpenoid compound isolated from the same was dissolved in DMSO (dimethylsulfoxide), and the solution was diluted at different concentrations before use. […] OD540 was measured with a UV/VIS spectrophotometer. Malondialdehyde (MDA) detected by the above coloring was quantified. […] MDA was quantified by using the standard curve in experiments with T. nucifera extracts or abietane diterpenoid compound isolated from the same.

For the next assay, the system named is C57BL/6J mice. The experiment in a line: Cholesterol-lowering effect in mice on high-fat/high-cholesterol (HFHC) diet. The note with it: for HDL-cholesterol / HDL/total cholesterol / Total cholesterol: blood plasma, 1% extracts or 0.1% probucol (wt/wt diet). Type of assay: in vivo. As for the experimental part: 30 specific pathogens free male C57BL/6J mice at the age of 6 weeks were raised in an animal facility, in which temperature was maintained as 22±3° C., humidity was kept as 55±10% and light was regulated as 12L/12D. The mice were adapted for about one week before being used for experiments. When they were at the age of 7 weeks (weight: 20˜22 g), they were divided into […] according to randomized block design. Group 1 mice were given with high-cholesterol/high-fat diet (CRF-1; AIN-76 test animal's normal diet supplemented with 1.25% cholesterol and 15% fat, Orient Yeast Co. Ltd., Japan), group 2 mice were given with high-fat/high-cholesterol (HFHC) diet together with 1% methanol extracts (wt/wt diet) of T. nucifera leaves (or 1% hot water extracts of T. nucifera leaves), and group 3 mice were treated with HFHC diet together with 0.1% probucol (wt/wt diet). All the mice of every group were free to take the diet and water for 10 days. Dietary intake was recorded everyday and weights of animals were measured every 5 days. Upon completion of breeding, all the records were analyzed. […] All the mice in three groups were sacrificed 10 days after the beginning of animal tests, then their blood was examined. Blood was taken from retro-orbital sinus of the sacrified mice by heparin treated capillary tube. Centrifugation was performed with blood at 8,000×g for 10 minutes. Blood plasma was separated from supernatant and then stored in a deep freezer. Total cholesterol content (TC) in blood plasma of each mouse of experimental group was measured by using a blood chemistry analyzer (CIBA Corning 550 Express, USA). In order to measure HDL-cholesterol, HDL measuring reagent (Chiron Diagnostics Co., USA), produced by the modified method for HDL measurement (references [(1) Stein E. A., et al.: Development and evaluation of a method for quantitation of plasma high-density-lipoprotein cholesterol. Clin. Chem. 24: 1112-1115, 1978; (2) Finley P. R., et al.: Cholesterol in high-density lipoprotein: use of Mg^2+/dextran sulfate in its enzymatic measurement. Clin. Chem., 24: 931-933, 1978; (3) Warnick G. R., et al.: Dextran sulfate-Mg^2+ precipitation procedure for quantitation of high-density lipoprotein cholesterol. Clin. Chem. 28: 1379-1388, 1982]) in which dextran sulfate and magnesium sulfate were added to serum of each mouse to precipitate LDL and VLDL and then HDL in supernatant was measured, was mixed with blood plasma of each experimental group at the ratio of 1:10. […] The resultant supernatant was put in a blood chemistry analyzer. A statistical computer program (Microsoft Excel, Version 7.0) was used to investigate and confirm (student t-test) the significance in difference in the results of blood analysis among experimental groups.

As to `C=C1CCC2[C@](C)(CO)CCC[C@]2(C)[C@H]1CC/C(C)=C\CO` (stereo partly drawn) [Kayadiol, kayadiol], the concentration for half-maximal inhibition (IC50) (in general, the concentration at which inhibition is half-maximal) at hACAT-1 is 120 µM; against hACAT-2, 155 µM.

In the case of `CC(C)c1cc2c(cc1O)[C@@]1(C)CCC[C@@](C)(C=O)C1CC2` (stereo partly drawn) [R = aldehyde, 18-oxoferruginol], the IC50 was determined as 37 µM on hACAT-1 and 42 µM at hACAT-2.

Turning to `CC(C)(Sc1cc(C(C)(C)C)c(O)c(C(C)(C)C)c1)Sc1cc(C(C)(C)C)c(O)c(C(C)(C)C)c1` [Probucol], the half-maximal inhibitory concentration (IC50) in the assay on LDL was 1.55 µM. Also, the “plasma HDL-cholesterol contents compared with negative control” value with C57BL/6J mice (HFHC diet 10 days) was “not much different”. Moreover, in the assay on C57BL/6J mice (Table 3, HFHC diet 10 days), the HDL-cholesterol is 41.7 ± 6.4 mg/dL, the HDL/total cholesterol is reported as 24.3% and the Total cholesterol stood at 177.0 ± 33.7 mg/dL. For the same molecule, the “total cholesterol in plasma reduced, comparing to a control” value in the assay on C57BL/6J mice (Table 3 experiment, vs HFHC diet group) was 14.5%. In addition, in the assay with C57BL/6J mice (Table 4, HFHC diet 10 days), the HDL-cholesterol was determined as 44.3 ± 6.5 mg/dL, the HDL/total cholesterol is given as 24.5% and the Total cholesterol came out at 180.9 ± 32.6 mg/dL. For the same molecule, the “plasma cholesterol reduced, comparing to a control” value with C57BL/6J mice (Table 4 experiment, vs HFHC diet group) amounted to 11.5%.

For `COC(OC)[C@]1(C)CCC[C@]2(C)c3cc(O)c(C(C)C)cc3CCC12` (stereo partly drawn) [R = dimethoxymethyl, 12-hydroxyabietic-8,11,13-trien-18-dimethylacetal], the IC50 against hACAT-1 was determined as 98 µM; on hACAT-2, 199 µM.

For the molecule δ-cadinol, on hACAT-1, the concentration for half-maximal inhibition (IC50) is 79 µM.

Regarding `CC(C)c1cc2c(cc1O)[C@@]1(C)CCCC(C)(C)[C@@H]1CC2` [R = methyl, ferruginol], the IC50 came to 46 µM on hACAT-1 and 88 µM at hACAT-2.

Take `C=C[C@@]1(C)CC[C@H]2C(=CC[C@@H]3[C@]2(C)CCC[C@@]3(C)C(=O)O)C1` [Isopimaric acid, isopimaric acid]: the figures for the half-inhibitory concentration (IC50) at hACAT-1 and at hACAT-2 were 229 µM and 263 µM, respectively.

`CC(C)c1cc2c(cc1O)[C@@]1(C)CCC[C@@](C)(CO)C1CC2` (stereo partly drawn) [R = hydroxymethyl, 18-hydroxyferruginol]: the IC50 against hACAT-1 is 74 µM; against hACAT-2, 65 µM.

On to `COC(=O)[C@]1(C)CCC[C@]2(C)c3cc(O)c(C(C)C)cc3CCC12` (stereo partly drawn) [R = methylester, 12-hydroxyabietic-8,11,13-trien-18-oic acid methylester], for which the IC50 against hACAT-1 was determined as 129 µM; on hACAT-2, 309 µM.

Turning to `CC(C)c1ccc2c(c1)CC[C@H]1[C@](C)(CO)CCC[C@]21C` [Dehydroabietinol, dehydroabietinol], the IC50 was 41 µM at hACAT-1 and 60 µM at hACAT-2.
